Experimental data reported in patent US9902696B2, “1,4-substituted piperidine derivatives” (Cephalon, Inc., priority 2015, dated 2018).
Where a name gives a salt, the structure may show the parent alone. Read-outs that look alike come from different tables or passages of the source.

Biological target: T1, recombinant human baculovirus-expressed GST-tagged FASN (Homo sapiens, UniProt P49327)
T1 construct: GST
Experiment: FASN enzyme activity assay, fluorescence-based detection of CoA with CPM
Assay type: biochemical
Conditions: 5 nM FASN, 150 μM NADPH, 10 μM acetyl-CoA, 25 μM malonyl-CoA, 90 minutes incubation
Procedure, shortened: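 CoA product reacted with thiol-reactive CPM (diluted to 50 μM in 70% ethanol), read at 390/530 nm after 30 min. Preceding reaction: 90 min, 5 nM recombinant GST-FASN, 150 μM NADPH, 10 μM acetyl-CoA, 25 μM malonyl-CoA, pH 7.5 HEPES, 0.5% DMSO. IC50s fitted by nonlinear sigmoidal regression.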

[1] = read-out: IC50 data for Compounds of Formulae I-V/V(a): Activity
[2] = read-out: IC50 data for Additional Compounds of Formulae I-V(a): Activity

T1 sequence (P49327 whole entry): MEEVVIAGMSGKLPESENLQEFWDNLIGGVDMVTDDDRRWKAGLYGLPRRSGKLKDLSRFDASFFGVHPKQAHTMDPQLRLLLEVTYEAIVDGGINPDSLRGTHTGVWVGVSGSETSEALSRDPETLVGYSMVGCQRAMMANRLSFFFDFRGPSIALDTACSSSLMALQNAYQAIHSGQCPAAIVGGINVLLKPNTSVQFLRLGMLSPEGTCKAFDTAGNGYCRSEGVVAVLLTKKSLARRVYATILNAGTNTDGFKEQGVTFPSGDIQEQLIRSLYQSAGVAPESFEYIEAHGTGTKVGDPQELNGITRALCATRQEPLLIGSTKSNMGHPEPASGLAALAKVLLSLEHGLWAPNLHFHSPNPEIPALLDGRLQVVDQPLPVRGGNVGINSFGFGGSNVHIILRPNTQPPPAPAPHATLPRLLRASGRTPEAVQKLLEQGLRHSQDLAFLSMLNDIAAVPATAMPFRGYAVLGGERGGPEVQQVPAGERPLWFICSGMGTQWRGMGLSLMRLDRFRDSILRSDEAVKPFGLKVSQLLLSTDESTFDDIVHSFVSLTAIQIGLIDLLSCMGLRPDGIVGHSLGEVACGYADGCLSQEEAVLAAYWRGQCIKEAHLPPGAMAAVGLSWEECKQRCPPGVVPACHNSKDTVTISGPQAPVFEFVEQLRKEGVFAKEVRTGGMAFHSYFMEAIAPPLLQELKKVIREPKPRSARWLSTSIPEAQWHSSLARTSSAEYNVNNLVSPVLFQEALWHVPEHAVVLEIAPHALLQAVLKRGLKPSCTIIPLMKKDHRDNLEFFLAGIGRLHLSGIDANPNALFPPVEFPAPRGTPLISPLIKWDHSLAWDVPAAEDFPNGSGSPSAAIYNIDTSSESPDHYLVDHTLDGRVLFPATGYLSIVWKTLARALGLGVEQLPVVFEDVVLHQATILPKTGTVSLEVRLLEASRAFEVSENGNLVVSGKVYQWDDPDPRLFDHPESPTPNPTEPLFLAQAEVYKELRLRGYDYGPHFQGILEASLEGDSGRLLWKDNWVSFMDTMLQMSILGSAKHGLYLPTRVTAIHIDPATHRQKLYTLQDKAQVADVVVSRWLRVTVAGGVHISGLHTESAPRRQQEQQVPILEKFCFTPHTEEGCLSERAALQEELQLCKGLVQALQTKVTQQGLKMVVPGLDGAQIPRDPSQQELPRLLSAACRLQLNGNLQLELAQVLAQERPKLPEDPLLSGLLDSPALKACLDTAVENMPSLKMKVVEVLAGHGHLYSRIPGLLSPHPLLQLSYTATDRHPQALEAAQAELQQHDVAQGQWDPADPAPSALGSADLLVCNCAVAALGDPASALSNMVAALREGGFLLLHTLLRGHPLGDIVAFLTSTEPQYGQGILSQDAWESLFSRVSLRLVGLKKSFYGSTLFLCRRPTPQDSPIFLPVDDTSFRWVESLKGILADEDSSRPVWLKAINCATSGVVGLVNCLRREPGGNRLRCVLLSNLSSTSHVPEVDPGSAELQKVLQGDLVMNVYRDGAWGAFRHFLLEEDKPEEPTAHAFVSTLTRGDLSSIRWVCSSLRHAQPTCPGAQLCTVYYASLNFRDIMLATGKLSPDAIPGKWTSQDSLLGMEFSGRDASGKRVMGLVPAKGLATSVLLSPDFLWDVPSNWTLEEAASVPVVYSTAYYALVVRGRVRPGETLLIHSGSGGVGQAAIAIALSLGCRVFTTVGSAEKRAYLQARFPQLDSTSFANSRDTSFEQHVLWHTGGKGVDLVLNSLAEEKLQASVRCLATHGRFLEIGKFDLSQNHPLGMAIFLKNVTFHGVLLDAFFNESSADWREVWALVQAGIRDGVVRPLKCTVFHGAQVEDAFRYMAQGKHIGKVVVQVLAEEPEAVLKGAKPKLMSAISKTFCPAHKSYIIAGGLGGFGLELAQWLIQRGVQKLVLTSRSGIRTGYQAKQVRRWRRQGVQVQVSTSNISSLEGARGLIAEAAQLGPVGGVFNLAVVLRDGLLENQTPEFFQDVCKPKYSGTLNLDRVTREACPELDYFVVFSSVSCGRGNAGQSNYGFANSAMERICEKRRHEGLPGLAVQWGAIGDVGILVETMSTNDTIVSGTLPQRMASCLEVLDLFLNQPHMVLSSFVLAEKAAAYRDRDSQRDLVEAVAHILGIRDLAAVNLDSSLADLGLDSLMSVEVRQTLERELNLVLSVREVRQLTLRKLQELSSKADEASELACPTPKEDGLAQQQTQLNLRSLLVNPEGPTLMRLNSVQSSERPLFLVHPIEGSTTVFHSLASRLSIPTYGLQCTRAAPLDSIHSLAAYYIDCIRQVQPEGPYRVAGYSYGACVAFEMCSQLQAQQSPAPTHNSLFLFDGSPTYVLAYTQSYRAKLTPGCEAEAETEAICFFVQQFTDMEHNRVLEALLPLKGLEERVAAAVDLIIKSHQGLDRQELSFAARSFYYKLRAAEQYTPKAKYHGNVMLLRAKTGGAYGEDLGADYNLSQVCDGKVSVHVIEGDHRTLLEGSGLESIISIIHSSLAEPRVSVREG

SMILES: O=C([C@H]1CCCO1)N1CCC(Oc2ccc(-c3ccc4cccnc4c3C3CC3)cc2)CC1 [Example 475, [4-[4-(8-Cyclopropyl-7-quinolyl)phenoxy]-1-piperidyl]-[(2R)-tetrahydrofuran-2-yl]methanone, HCl]
- IC50 [1]: 1 to 99 nM

SMILES: CCOC(=O)N1CCC(Oc2ccc(-c3ccc4cccnc4c3C)cc2)CC1 [Example 90, Ethyl 4-[4-(8-methyl-7-quinolyl)phenoxy]piperidine-1-carboxylate]
- IC50 [1]: 100 to 999 nM

SMILES: CN1CCN(c2nccc3cc(-c4ccc(OC5CCN(C(=O)[C@H]6CCCO6)CC5)cc4)ccc23)CC1 [Example 455]
- IC50 [1]: 1000 to 10000 nM

SMILES: CCC(=O)N1CCC(Oc2ccc(-c3cc4ncccc4cc3C)cc2)CC1 [Example 276, 1-{4-[4-(6-Methylquinolin-7-yl)-phenoxy]-piperidin-1-yl}-propan-1-one]
- IC50 [1]: 1000 to 10000 nM

SMILES: Cc1c(-c2ccc(OC3CCN(C(=O)Nc4cnn(C)c4)CC3)cc2)ccc2nccn12 [Example 604, 4-[4-(5-Methylimidazo[1,2-a]pyridin-6-yl)phenoxy]-N-(1-methylpyrazol-4-yl)piperidine-1-carboxamide]
- IC50 [2]: 1000 to 10000 nM

SMILES: O=C(C1CCC1)N1CCC(Oc2ccc(-c3cnc4ccccc4c3)cc2)CC1 [Example 101, Cyclobutyl-[4-(4-quinolin-3-yl-phenoxy)-piperidin-1-yl]-methanone,HCl]
- IC50 [1]: 1 to 99 nM

SMILES: Cc1c(-c2ccc(OC3CCN(C(=O)NCC4CC4)CC3)cc2)ccc2cccnc12 [Example 540, N-(Cyclopropylmethyl)-4-[4-(8-methyl-7-quinolyl)phenoxy]piperidine-1-carboxamide, HCl]
- IC50 [2]: 1 to 99 nM

SMILES: Cc1c(-c2ccc(OC3CCN(C(=O)N4CCCCC4)CC3)cc2)ccc2cccnc12 [Example 98, [4-[4-(8-methyl-7-quinolyl)phenoxy]-1-piperidyl]-(1-piperidyl)methanone]
- IC50 [1]: 1 to 99 nM

SMILES: Cc1c(-c2ccc(OC3CCN(C(=O)N4CCN(C)CC4)CC3)cc2)ccc2cccnc12 [Example 533, (4-Methyllpiperazin-1-yl)-[4-[4-(8-methyl-7-quinolyl)phenoxy]-1-piperidyl]methanone, HCl]
- IC50 [2]: 1000 to 10000 nM

SMILES: O=C(C1CC1)N1CCC(Oc2ccc(-c3ccc4nccn4c3Cl)cc2)CC1 [Example 297, {4-[4-(5-Chloroimidazo[1,2-a]pyridin-6-yl)-phenoxy]-piperidin-1-yl}-cyclopropylmethanone]
- IC50 [1]: 100 to 999 nM

SMILES: Cc1nccc2cc(-c3ccc(OC4CCN(C(=O)C5CC5)CC4)cc3)ccc12 [Example 481, Cyclopropyl-{4-[4-(1-methylisoquinolin-6-yl)-phenoxy]-piperidin-1-yl}-methanone]
- IC50 [1]: 1 to 99 nM

SMILES: CCc1cc2cc(-c3ccc(OC4CCN(C(=O)[C@H]5CCCO5)CC4)cc3)ccc2cn1 [Example 476, {4-[4-(3-Ethylisoquinolin-6-yl)-phenoxy]-piperidin-1-yl}-(R)-tetrahydro-furan-2-yl-methanone]
- IC50 [1]: 1 to 99 nM

SMILES: O=C(C1CC1)N1CCC(Oc2ccc(-c3ccc4cnc(Cl)cc4c3)cc2)CC1 [Example 414, {4-[4-(3-Chloroisoquinolin-6-yl)-phenoxy]-piperidin-1-yl}-cyclopropyl-methanone]
- IC50 [1]: 1000 to 10000 nM

SMILES: O=C(C1OCCO1)N1CCC(Oc2ccc(-c3cnc4ccccc4c3)cc2)CC1 [Example 152, HCl]
- IC50 [1]: 1 to 99 nM

SMILES: N#CCC(=O)N1CCC(Oc2ccc(-c3cnc4ccccc4c3)cc2)CC1 [Example 218, 3-Oxo-3-[4-(4-quinolin-3-yl-phenoxy)-piperidin-1-yl]-propionitrile]
- IC50 [1]: 1000 to 10000 nM

SMILES: O=C([C@H]1CCCO1)N1CCC(Oc2ccc(-c3ccc4nnc(C(F)(F)F)n4c3)cc2)CC1 [Example 161, (R)-Tetrahydrofuran-2-yl-{4-[4-(3-trifluoromethyl-1,2,4-triazolo[4,3-a]pyridin-6-yl)-phenoxy]-piperidin-1-yl}-methanone]
- IC50 [1]: 1000 to 10000 nM

SMILES: CCC(=O)N1CCC(Oc2ccc(-c3cc(F)cc(OCc4ccccc4)c3)cc2)CC1 [Example 506, 1-[4-(5′-Benzyloxy-3′-fluorobiphenyl-4-yloxy)-piperidin-1-yl]-propan-1-one]
- IC50 [1]: 1000 to 10000 nM
